Test results as given in patent US20030207819A1, “Compositions and methods for treating inflammatory connective tissue diseases” (priority 2002, published 2003).

Assays:
[1] = system: patient with chondrocalcinosis leading to pseudorheumatoid pseudogout syndrome; assay: Example 3: clinical observation of patient on clarithromycin; format: in vivo, human; conditions: person; clarithromycin 500 mg b.i.d. begun two weeks prior for pneumonia
Protocol: A patient has severe ditTuse generalized chondrocalcinosis leading to pseudorheumatoid pseudogout syndrome. Given the intensity of their chronic synovitis and the lack of response to steroids as well as NSAIDs, they were put on methotrexate, 10 mg/week and infliximab ([…]®, Centocor, Inc.), after which they did satisfactorily. The patient had bilateral total knee replacements and, subsequently was taken off the infliximab when they developed a knee infection postoperatively. The patient continued to have diffuse aches and pains and joint swelling. When seen in the office on Mar. 12, 2002, they spontaneously asked whether the medicine they were taking for their pneumonia could have an effect on their arthritis. Apparently they had begun clarithromycin 500 mg b.i.d. for their pneumonia two weeks prior and said they had “never felt as well” with respect to their joint symptoms as they had during the subsequent several days. They continued to feel much improved and asked if they could stay on the antibiotic.

[2] = system: patient with low-grade connective tissue symptoms; assay: Example 5: clarithromycin study, VAS and joint assessment; format: in vivo, human
Description: In 1991, it was elected to begin the patient on hydroxychloroquine ([…]®, Sanofi-Synthelabo, Inc.) given their low-grade connective tissue symptoms not responding to non-steroidal anti-inflammatory therapy. […] A trial of hydroxychloroquine was again initiated to see how they would tolerate it. […] Hydroxychloroquine was discontinued when they wanted to attempt getting pregnant again. Therapy most recently consisted of non-steroidal inflammatory agents and physical therapy.
On Feb. 27, 2003, the patient agreed to participate in the clarithromycin study. […] The patient was begun on clarithromycin (BIAXIN®, Abbott Laboratories) 500 mg twice per day.

SMILES: CC[C@H]1OC(=O)[C@H](C)[C@@H](O[C@H]2C[C@@](C)(OC)[C@@H](O)[C@H](C)O2)[C@H](C)[C@@H](O[C@@H]2O[C@H](C)C[C@H](N(C)C)[C@H]2O)[C@](C)(OC)C[C@@H](C)C(=O)[C@H](C)[C@@H](O)[C@]1(C)O [clarithromycin, 6-O-methylerythromycin]
- joint symptoms [1]: much improved
- Patient VAS (Pain) ([2]; Visit Three, Apr. 2, 2003, clarithromycin 500 mg twice per day for one month, VAS 0 to 100 mm, baseline 67): 26 mm
- joint pain, patient statement ([2]; Visit Three, clarithromycin 500 mg twice per day): became better pretty much right away
- joint tenderness and swelling on physical examination ([2]; Visit Three, clarithromycin for one month): decreased joint tenderness and swelling
- Tender/Painful Joints ([2]; Visit Three, clarithromycin for one month, baseline 3): 0
- Swollen Joints ([2]; Visit Three, clarithromycin for one month, baseline 6): 1
- Patient VAS (Global) ([2]; Visit Three, clarithromycin for one month, baseline 30): 12 mm
- Practitioner VAS (Global) ([2]; Visit Three, clarithromycin for one month, baseline 54): 25 mm
- side reaction ([2]; clarithromycin 500 mg twice per day, one month): metallic taste
